Test: quantity of water absorbed by the same mass (100 g) of excipients
Assay type: physicochemical
Text: Below are some examples supporting this statement, which test the quantity of water absorbed by the same mass (100 g) of excipients of different types: […]

- AMOUNT OF WATER ABSORBED PER 100 g OF EXCIPIENT: 15 g
Structure (SMILES): OC[C@H]1O[C@@H](O[C@H]2[C@H](O)[C@@H](O)C(O)O[C@@H]2CO)[C@H](O)[C@@H](O)[C@H]1O (stereo partly shown) [Lactose]
